The text below walks through data of PubChem BioAssay (NCI).

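Each compound was tested at five concentrations against cells in 96-well plates for 48 hours. TGI: total growth inhibition.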 Bounds are passed on as bounds.

What all share (experiment): NCI tumour cell line growth inhibition, 48 h
Test [1] has as its system 786-0 renal.
For test [2], the system named is A498 renal.
Test [3] has as its system HCC-2998 colon.
The test system of test [4] is HCT-116 colon.
Test [5] concerns HL-60(TB) leukemia.
Test [6] concerns HOP-62 NSCLC.
The test system of test [7] is HOP-92 NSCLC.
Test [8] relates to PC-3 prostate.
Test [9] deals with SK-MEL-2 melanoma.
The test system of test [10] is UACC-257 melanoma.

In the case of `C=C1CC(c2ccc(OCCCN3C(=O)c4ccccc4C3=O)c(OC)c2)OC1=O` (stereo not given), the TGI came out at 14.6 µM in test [1]; 6.83 µM in test [2]; 27.7 µM in test [3]; 6.6 µM in test [4]; 2.8 µM in test [5]; 30.6 µM in test [6]. Also, the TGI was determined as 3.51 µM in [7], 25.7 µM in test [8], 18.4 µM in test [9] and 12.8 µM in [10].

Regarding `CCc1nc(N)nc(N)c1-c1ccc2nn(-c3ccccc3)[n+]([O-])c2c1`, the TGI in [1] turned out to be 18.9 µM; in test [2], 29.2 µM; in test [3], 20.5 µM; in test [4], 15.5 µM; in [5] it was 27.4 µM; in test [6] it was 25.3 µM. For the same compound, the TGI was found to be 27 µM in test [7], 23.4 µM in [8], 28.7 µM in test [9] and 24.2 µM in test [10].

Consider `CCC1(CC)SCc2nc3ccccc3n21`, for which the TGI in test [1] is over 100 µM; in [2], over 100 µM; in [3], over 100 µM; in [4], 73.4 µM; in test [5], 59.5 µM; in test [6], over 100 µM. The TGI was found to be 61.2 µM in test [7], 81.1 µM in test [8], 85.3 µM in test [9] and 71.9 µM in test [10].

As to `O=Cc1ccc2c(c1)CC1(C2)Cc2ccc3c(c2C1)CCC3` (stereo not given), the TGI in [1] is 28.3 µM; in test [2] it was over 61 µM; in test [3], over 60.3 µM; in test [4] it was 19.1 µM; in [5] it was over 26.9 µM; in test [6] it was 27.7 µM. Besides, the TGI in test [7] was over 48.3 µM; in test [8] it was 18.2 µM; in [9] it was 14 µM; in test [10] it was 33 µM.

In the case of `COCCOCc1nc(C#N)c(N)o1`, the TGI in test [1], in test [2], in test [3], in test [4], in test [5] and in test [6] was over 100 µM throughout. The TGI in [7], in test [8], in test [9] and in [10] was over 100 µM each time.

For the compound `O=[N+]([O-])c1cc2oc(COc3ccccc3)nc2cc1Cl`, the TGI in test [1] was over 100 µM; in test [2] it was 53 µM; in test [3] it was 43.3 µM; in [4], 44.9 µM; in test [5] it was over 100 µM; in test [6], 50.6 µM. The TGI in [7] was over 100 µM; in test [8] it was over 100 µM; in test [9], 44.2 µM; in test [10], 63.4 µM.

In the case of `COc1ccc2nc3ccc(OC)cc3c(S(=O)CCCl)c2c1` (stereo not given), the TGI stood at 3.34 µM in test [1]; 34 µM in test [2]; 46.7 µM in [3]; 3.39 µM in test [4]; 6.86 µM in test [5]; 36.8 µM in [6]. The TGI in [7] was determined as 10.8 µM; in [8] it was 23.4 µM; in [9] it was 35.3 µM; in [10], 5.38 µM.

Consider `O=c1[nH]c(-c2ccc3ccccc3c2)nc2ccccc12`, for which the TGI was over 100 µM in [1]; over 100 µM in [2]; over 100 µM in test [3]; over 100 µM in [4]; over 100 µM in test [5]; 50.2 µM in test [6]. For the same compound, the TGI in [7], in test [8], in test [9] and in test [10] was over 100 µM each time.

For `NC(Cc1cccc([N+](=O)[O-])c1)C(=O)O` (stereo not given), the TGI in test [1], in [2], in test [3], in test [4], in test [5] and in test [6] was over 100 µM in each case. In addition, the TGI in [7], in test [8], in test [9] and in [10] was over 100 µM in each case.

For the compound `O=[N+]([O-])c1ccccc1S(=O)(=O)c1cc(Cl)cc2c1NCCC2`, the TGI in [1], in [2], in [3], in [4], in [5] and in test [6] was over 100 µM throughout. Also, the TGI in test [7] was over 100 µM; in test [8], over 100 µM; in [9], over 100 µM; in test [10], 96.7 µM.

As to `NC(N)=NCCN=C(N)N`, the TGI in [1], in test [2], in [3], in [4], in test [5] and in test [6] was over 100 µM in each case. Also, the TGI in test [7], in test [8], in test [9] and in test [10] was over 100 µM each time.

Take `C[C@]12CC[C@H](O)CC1=CC[C@@H]1[C@@H]2CC[C@]2(C)C(=O)[C@@H](N3CCOCC3)C[C@@H]12`: the TGI in test [1], in [2], in test [3], in test [4], in test [5] and in test [6] was over 100 µM each time. Also, the TGI in test [7], in test [8], in test [9] and in test [10] was over 100 µM throughout.

With `O=C(CC(=O)Nc1cccc(C(=O)O)c1)Nc1cccc(C(=O)O)c1`, the TGI in test [1], in [2], in [3], in test [4], in test [5] and in [6] was over 100 µM each time. For the same compound, the TGI in test [7], in test [8], in test [9] and in [10] was over 100 µM throughout.

On to `Oc1ccc2ccccc2c1/C=C/c1ccc2c(Br)cc(Br)c(O)c2n1`, for which the TGI in test [1] stood at 19.5 µM; in test [2], 18.6 µM; in [3] it was 23.4 µM; in [4] it was 11.4 µM; in test [5], 12.3 µM; in test [6] it was 34.5 µM. The TGI in test [7] came out at 35.5 µM; in test [8], 18.9 µM; in test [9], 29.7 µM; in test [10] it was 22.9 µM.
